Test results taken from patent US20230312605A1, “PYRROLO[2,1-F][1,2,4]TRIAZINES AND PREPARATION AND USES THEREOF” (BioSplice Therapeutics, Inc., priority 2021, published 2023).

Biological target: recombinant DYRK1A kinase (Homo sapiens (Human), UniProt Q13627)
Assay: DYRK1A kinase assay (Ser/Thr 18 peptide Z-lyte FRET assay)
Assay type: biochemical
Details: recombinant DYRK1A 0.25 µg/mL, ATP 15 µM, Ser/Thr peptide 18 4 µM, one hour at room temperature; table head prints EC50, method says IC50
Procedure, shortened: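 Recombinant human DYRK1A (0.25 µg/mL) with 15 µM ATP and 4 µM Ser/Thr 18 peptide was incubated 1 h at room temperature with compound (11-point, 10 µM top), in duplicate. Z-lyte FRET read-out (coumarin/fluorescein emission ratio) was converted to percent phosphorylation; IC50 from non-linear regression.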

EC50	SMILES
5 nM	Cc1nc2ccc(-c3ccn4nc(NC5CCNCC5)ncc34)nc2n1CC(F)F [Compound 1916, 5-(3-(2,2-difluoroethyl)-2-methyl-3H-imidazo[4,5-b]pyridin-5-yl)-N-(piperidin-4-yl)pyrrolo[2,1-f][1,2,4]triazin-2-amine]
1 nM	CC(=O)N[C@]1(C)C[C@@H](Nc2ncc3c(-c4ccc5nc(C)n(CC(F)F)c5c4)ccn3n2)C1 [Compound 1920, N-((1r,3r)-3-((5-(1-(2,2-Difluoroethyl)-2-methyl-1H-benzo[d]imidazol-6-yl)pyrrolo[2,1-f] [1,2,4]triazin-2-yl)amino)-1-methylcyclobutyl)acetamide]
7 nM	CC(=O)N1C[C@@H](F)[C@@H](Nc2ncc3c(-c4ccc5nc(C)n(CC(F)F)c5n4)ccn3n2)C1 [Compound 1940, 1-((3S,4R)-3-((5-(3-(2,2-Difluoroethyl)-2-methyl-3H-imidazo[4,5-b]pyridin-5-yl)pyrrolo[2,1-f] [1,2,4]triazin-2-yl)amino)-4-fluoropyrrolidin-1-yl)ethan-1-one]
4 nM	CC(=O)N1C[C@H](F)[C@H](Nc2ncc3c(-c4ccc5nc(C)n(CC(F)F)c5n4)ccn3n2)C1 [Compound 1941, 1-((3R,4S)-3-((5-(3-(2,2-Difluoroethyl)-2-methyl-3H-imidazo[4,5-b]pyridin-5-yl)pyrrolo[2,1-f] [1,2,4]triazin-2-yl)amino)-4-fluoropyrrolidin-1-yl)ethan-1-one]
5 nM	CC(=O)N1CC[C@@H](Nc2ncc3c(-c4ccc5nc(C)n(CC(F)F)c5n4)ccn3n2)[C@@H](F)C1 [Compound 1951, 1-((3S,4R)-4-((5-(3-(2,2-Difluoroethyl)-2-methyl-3H-imidazo[4,5-b]pyridin-5-yl)pyrrolo[2,1-f] [1,2,4]triazin-2-yl)amino)-3-fluoropiperidin-1-yl)ethan-1-one]
4 nM	CC(=O)N1CC[C@H](Nc2ncc3c(-c4ccc5nc(C)n(CC(F)F)c5n4)ccn3n2)[C@H](F)C1 [Compound 1952, 1-((3R,4S)-4-((5-(3-(2,2-Difluoroethyl)-2-methyl-3H-imidazo[4,5-b]pyridin-5-yl)pyrrolo[2,1-f] [1,2,4]triazin-2-yl)amino)-3-fluoropiperidin-1-yl)ethan-1-one]
1 nM	CC(=O)N[C@]1(C)C[C@@H](Nc2ncc3c(-c4ccc5ncccc5c4)ccn3n2)C1 [Compound 1980]
2 nM	CC(=O)N[C@]1(C)C[C@@H](Nc2ncc3c(-c4ccc5nccnc5c4)ccn3n2)C1 [Compound 1981, N-((1r,3r)-1-methyl-3-((5-(quinoxalin-6-yl)pyrrolo[2,1-f][1,2,4]triazin-2-yl)amino)cyclobutyl)acetamide]

Second part, the molecule before the results:

SMILES	EC50
Cc1nc2ccc(-c3ccn4nc(NC5CCN(C(=O)[C@@H]6CC6(F)F)CC5)ncc34)nc2n1CC(F)F [Compound 1917, (S)-(2,2-Difluorocyclopropyl)(4-((5-(3-(2,2-difluoroethyl)-2-methyl-3H-imidazo[4,5-b]pyridin-5-yl)pyrrolo[2,1-f] [1,2,4]triazin-2-yl)amino)piperidin-1-yl)methanone]	9 nM
Cc1nc2ccc(-c3ccn4nc(NC5CCN(C(=O)[C@H]6CC6(F)F)CC5)ncc34)nc2n1CC(F)F [Compound 1918, (R)-(2,2-Difluorocyclopropyl)(4-((5-(3-(2,2-difluoroethyl)-2-methyl-3H-imidazo[4,5-b]pyridin-5-yl)pyrrolo[2,1-f] [1,2,4]triazin-2-yl)amino)piperidin-1-yl)methanone]	7 nM
Cc1nc2ccc(-c3ccn4nc(N[C@H]5CN(C6COC6)C[C@H]5F)ncc34)nc2n1CC(F)F [Compound 1944, 5-(3-(2,2-difluoroethyl)-2-methyl-3H-imidazo[4,5-b]pyridin-5-yl)-N-((3S,4R)-4-fluoro-1-(oxetan-3-yl)pyrrolidin-3-yl)pyrrolo[2,1-f][1,2,4]triazin-2-amine]	13 nM
Cc1nc2ccc(-c3ccn4nc(N[C@@H]5CN(C6COC6)C[C@@H]5F)ncc34)nc2n1CC(F)F [Compound 1945, 5-(3-(2,2-Difluoroethyl)-2-methyl-3H-imidazo[4,5-b]pyridin-5-yl)-N-((3R,4S)-4-fluoro-1-(oxetan-3-yl)pyrrolidin-3-yl)pyrrolo [2,1-f][1,2,4]triazin-2-amine]	1 nM
Cc1nc2ccc(-c3ccn4nc(N[C@H]5CC[C@@H](C(=O)N6CC(F)(F)C6)CC5)ncc34)nc2n1CC(F)F [Compound 1950, (3,3-Difluoroazetidin-1-yl)(cis-4-((5-(3-(2,2-difluoroethyl)-2-methyl-3H-imidazo[4,5-b]pyridin-5-yl)pyrrolo[2,1-f][1,2,4]triazin-2-yl)amino)cyclohexyl)methanone]	3 nM
Cc1nc2ccc(-c3ccn4nc(NC5CCN(C(=O)C6CCC(F)(F)CC6)CC5)ncc34)nc2n1CC(F)F [Compound 1953, (4,4-difluorocyclohexyl)(4-((5-(3-(2,2-difluoroethyl)-2-methyl-3H-imidazo[4,5-b]pyridin-5-yl)pyrrolo[2,1-f][1,2,4]triazin-2-yl)amino)piperidin-1-yl)methanone]	7 nM
Cc1nc2ccc(-c3ccn4nc(N[C@@H]5CCN(C6COC6)C[C@@H]5F)ncc34)nc2n1CC(F)F [Compound 1954, 5-(3-(2,2-Difluoroethyl)-2-methyl-3H-imidazo[4,5-b]pyridin-5-yl)-N-((3 S,4R)-3-fluoro-1-(oxetan-3-yl)piperidin-4-yl)pyrrolo[2,1-f] [1,2,4]triazin-2-amine]	6 nM
Cc1nc2ccc(-c3ccn4nc(N[C@H]5CCN(C6COC6)C[C@H]5F)ncc34)nc2n1CC(F)F [Compound 1955, 5-(3-(2,2-Difluoroethyl)-2-methyl-3H-imidazo[4,5-b]pyridin-5-yl)-N-((3R,4S)-3-fluoro-1-(oxetan-3-yl)piperidin-4-yl)pyrrolo[2,1-f][1,2,4]triazin-2-amine]	4 nM
Cc1nc2ccc(-c3ccn4nc(NC5CCC6(CC5)COC6)ncc34)nc2n1CC(F)F [Compound 1961, 5-(3-(2,2-Difluoroethyl)-2-methyl-3H-imidazo[4,5-b]pyridin-5-yl)-N-(2-oxaspiro[3.5]nonan-7-yl)pyrrolo[2,1-f][1,2,4]triazin-2-amine]	3 nM
Cc1nc2ncc(-c3ccn4nc(N[C@H]5CC[C@@H](OC(F)(F)F)CC5)ncc34)nc2n1CC(F)F [Compound 1970, 5-(1-(2,2-Difluoroethyl)-2-methyl-1H-imidazo[4,5-b]pyrazin-6-yl)-N-(cis-4-(trifluoromethoxy)cyclohexyl)pyrrolo[2,1-f][1,2,4]triazin-2-amine]	7 nM
Cc1nc2nc(-c3ccn4nc(N[C@H]5CC[C@@H](OC(F)(F)F)CC5)ncc34)cnc2n1CC(F)F [Compound 1971, 5-(1-(2,2-Difluoroethyl)-2-methyl-1H-imidazo[4,5-b]pyrazin-5-yl)-N-(cis-4-(trifluoromethoxy)cyclohexyl)pyrrolo[2,1-f][1,2,4]triazin-2-amine]	379 nM
Cc1nc2ncc(-c3ccn4nc(N[C@H]5CC[C@@](C)(O)CC5)ncc34)nc2n1CC(F)F [Compound 1974, cis-4-((5-(1-(2,2-difluoroethyl)-2-methyl-1H-imidazo[4,5-b]pyrazin-6-yl)pyrrolo[2,1-f][1,2,4]triazin-2-yl)amino)-1-methylcyclohexan-1-ol]	2 nM
